These results are taken from patent US11795177B2, “Substituted quinoline analogs as aldehyde dehydrogenase 1A1 (ALDH1A1) inhibitors” (THE UNITED STATES OF AMERICA, AS REPRESENTED BY THE …, priority 2017, dated 2023).

Structures can show the parent of a compound that is named as a salt.

For experiment [1], the target named is T1, ALDH1A1 enzyme (Homo sapiens, UniProt P00352).
T1 sequence (P00352 1-501): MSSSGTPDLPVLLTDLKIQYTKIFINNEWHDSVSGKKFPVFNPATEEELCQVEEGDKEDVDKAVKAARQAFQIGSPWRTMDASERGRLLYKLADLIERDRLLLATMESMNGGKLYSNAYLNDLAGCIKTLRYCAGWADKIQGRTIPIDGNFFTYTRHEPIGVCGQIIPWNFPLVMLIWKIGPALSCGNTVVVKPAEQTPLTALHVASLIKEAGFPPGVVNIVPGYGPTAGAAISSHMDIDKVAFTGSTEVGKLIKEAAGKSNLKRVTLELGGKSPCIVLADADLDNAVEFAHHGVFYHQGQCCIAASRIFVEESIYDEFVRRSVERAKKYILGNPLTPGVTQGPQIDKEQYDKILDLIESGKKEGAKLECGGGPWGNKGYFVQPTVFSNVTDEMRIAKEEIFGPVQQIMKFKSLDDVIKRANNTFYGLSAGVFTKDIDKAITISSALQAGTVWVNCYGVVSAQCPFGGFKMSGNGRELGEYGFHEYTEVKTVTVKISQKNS
Kind of experiment: ALDH1A1 enzymatic assay (in vitro). To be noted: ALDH1A1 enzyme 20 nM, NAD+ 1 mM, propionaldehyde 80 μM; read-out: ALDH1A1 IC50. In kind it is biochemical. An outline of the steps:
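ALDH1A1 (20 nM final) in 100 mM HEPES pH 7.5, 0.01% Tween 20 was preincubated 15 min at RT with compound (968 pM–57.2 μM final), then started with 1 mM NAD+ and 80 μM propionaldehyde. NADH fluorescence (ex 340/em 450 nm) followed kinetically for 10 min; change normalized to no-inhibitor and no-enzyme controls for percent inhibition and curve fitting.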

Experiment [2] relates to MIA PaCa-2 cells. Put plainly: MIA PaCa2 cell-based assay (1,536-well high-content imaging ALDEFLUOR assay). More on the design: species or system human. The conditions noted are these: Homo sapiens, 0.5 h, ALDEFLUOR BAAA substrate 500 nM, 30 minutes. In a few lines: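 MIA PaCa-2 cells (1,000/well), plated overnight, given BAAA substrate (500 nM) plus Hoechst 33342 (0.5 nM), then compound (16-point, 1.4 nM–47.8 μM final; 0.5% DMSO). After 30 min at 37° C, ALDH activity imaged by high-content microscopy as BAA-retaining (FITC) cells versus Hoechst-stained nuclei.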

What is called IC50 is the concentration at which inhibition is half-maximal. With `CCOC(=O)N1CCN(C(=O)c2cnc3ccc(F)cc3c2N2CCC(C)(C#N)CC2)CC1` [Example 88, Ethyl 4-(4-(4-cyano-4-methylpiperidin-1-yl)-6-fluoroquinoline-3-carbonyl)piperazine-1-carboxylate], the IC50 in experiment [1] was less than 0.5 µM; in experiment [2], more than 10 µM.
Regarding `CCC(=O)N1CCN(C(=O)c2cnc3ccc(F)cc3c2N2CCC3(CC2)OCCO3)CC1` [Example 70, 1-(4-(6-fluoro-4-(1,4-dioxa-8-azaspiro[4.5]decan-8-yl)quinoline-3-carbonyl)piperazin-1-yl)propan-1-one], the IC50 in experiment [1] is less than 0.5 µM; in experiment [2], 1 to 10 µM.
In the same order, the values of `CCC(=O)N1CCN(C(=O)c2cnc3ccc(OC)cc3c2N2CCC3(CC2)OCCO3)CC1` [Example 6, 1-(4-(6-methoxy-4-(1,4-dioxa-8-azaspiro[4.5]decan-8-yl)quinoline-3-carbonyl)piperazin-1-yl)propan-1-one, TFA] are less than 0.5 µM and 1 to 10 µM.
In the same order, the values of `CN(C)C(=O)N1CCN(C(=O)c2cnc3ccc(Cl)cc3c2-c2ccc(C3(C#N)CC3)cc2)CC1` [Example 296, 4-(6-chloro-4-(4-(1-cyanocyclopropyl)phenyl)quinoline-3-carbonyl)-N,N-dimethylpiperazine-1-carboxamide] are less than 0.5 µM and less than 0.5 µM.
As for `CCNC(=O)N1CCN(C(=O)c2cnc3cc(OC)ccc3c2N2CCC3(CC2)OCCO3)CC1` [Example 139, N-ethyl-4-(7-methoxy-4-(1,4-dioxa-8-azaspiro[4.5]decan-8-yl)quinoline-3-carbonyl)piperazine-1-carboxamide], the IC50 was less than 0.5 µM in experiment [1] and 1 to 10 µM in experiment [2].
Consider `CCNC(=O)N1CCN(C(=O)c2cnc3ccc(F)cc3c2N2CCC3(CC2)OCCO3)CC1` [Example 56, N-ethyl-4-(6-fluoro-4-(1,4-dioxa-8-azaspiro[4.5]decan-8-yl)quinoline-3-carbonyl)piperazine-1-carboxamide], for which the 50% inhibitory concentration (IC50) in experiment [1] was less than 0.5 µM; in experiment [2], more than 10 µM.
For `COc1ccc2ncc(C(=O)N3CCN(C(=O)C4CC4)CC3)c(N3CCC(C)(C#N)CC3)c2c1` [Example 27, 1-(3-(4-(cyclopropanecarbonyl)piperazine-1-carbonyl)-6-methoxyquinolin-4-yl)-4-methylpiperidine-4-carbonitrile] the same measures were less than 0.5 µM and 1 to 10 µM.
On to `COc1ccc2ncc(C(=O)N3CCN(S(C)(=O)=O)CC3)c(N3CCC4(CC3)OCCO4)c2c1` [Example 13, (6-methoxy-4-(1,4-dioxa-8-azaspiro[4.5]decan-8-yl)quinolin-3-yl)(4-(methylsulfonyl)piperazin-1-yl)methanone, TFA], for which the figures for the IC50 in experiment [1] and in experiment [2] were less than 0.5 µM and 1 to 10 µM, respectively.
On to `N#CC1(c2ccc(-c3c(C(=O)N4CC5(CC(O)C5)C4)cnc4ccc(F)cc34)cc2)CC1` [Cpd. 335, 1-(4-(6-fluoro-3-(6-hydroxy-2-azaspiro[3.3]heptane-2-carbonyl)quinolin-4-yl)phenyl)cyclopropane-1-carbonitrile], for which the half-maximal inhibitory concentration (IC50) in experiment [1] was less than 0.5 µM; in experiment [2], 1 to 10 µM.
Turning to `COc1ccc2ncc(C(=O)N3CCN(C(=O)C4CC4)CC3)c(N3CCC(OC)CC3)c2c1` [Example 3, (4-(cyclopropanecarbonyl)piperazin-1-yl)(6-methoxy-4-(4-methoxypiperidin-1-yl)quinolin-3-yl)methanone, TFA], the IC50 in experiment [1] was less than 0.5 µM; in experiment [2], more than 10 µM.
In the same order, the values of `COc1ccc2ncc(C(=O)N3CCN(C(=O)c4cnn(C)c4)CC3)c(N3CCC4(CC3)OCCO4)c2c1` [Example 7, (6-methoxy-4-(1,4-dioxa-8-azaspiro[4.5]decan-8-yl)quinolin-3-yl)(4-(1-methyl-1H-pyrazole-4-carbonyl)piperazin-1-yl)methanone, TFA] are less than 0.5 µM and more than 10 µM.
In the same order, the values of `CS(=O)(=O)N1CCN(C(=O)c2cnc3ccc(F)cc3c2N2CCN(S(C)(=O)=O)CC2)CC1` [Cpd. 307, (6-fluoro-4-(4-(methylsulfonyl)piperazin-1-yl)quinolin-3-yl)(4-(methylsulfonyl)piperazin-1-yl)methanone] are 1 to 10 µM and more than 10 µM.
For `CCC(=O)N1CCN(C(=O)c2cnc3cc(OC)c(OC)cc3c2N2CCC(C)(C#N)CC2)CC1` [Example 110, 1-(6,7-dimethoxy-3-(4-propionylpiperazine-1-carbonyl)quinolin-4-yl)-4-methylpiperidine-4-carbonitrile] the same measures were less than 0.5 µM and 1 to 10 µM.
As to `N#CC1(c2ccccc2)CCN(c2c(C(=O)Nc3cnn(CC(=O)NC4CC4)c3)cnc3ccc(F)cc23)CC1` [Cpd. 347, 4-(4-cyano-4-phenylpiperidin-1-yl)-N-(1-(2-(cyclopropylamino)-2-oxoethyl)-1H-pyrazol-4-yl)-6-fluoroquinoline-3-carboxamide], the IC50 in experiment [1] and in experiment [2] was less than 0.5 µM each time.
On to `CNC(=O)C1CCN(C(=O)c2cnc3ccc(F)cc3c2-c2ccc(C3(C#N)CC3)cc2)CC1` [Cpd. 333, 1-(4-(4-(1-cyanocyclopropyl)phenyl)-6-fluoroquinoline-3-carbonyl)-N-methylpiperidine-4-carboxamide], for which the concentration for half-maximal inhibition (IC50) in experiment [1] and in experiment [2] was less than 0.5 µM in each case.
Consider `C[C@@H]1CN(C(=O)c2cnc3ccc(F)cc3c2N2CCC(C)(C#N)CC2)CCN1C(=O)C1CC1` [Example 224, (R)-1-(3-(4-(cyclopropanecareonyl)-3-methylpiperazine-1-carbonyl)-6-fluoroquinolin-4-yl)-4-methylpiperidine-4-carbonitrile], for which the IC50 in experiment [1] was 1 to 10 µM; in experiment [2], more than 10 µM.
Consider `CN(C)S(=O)(=O)N1CCN(C(=O)c2cnc3ccc(Cl)cc3c2N2CCC(C#N)(c3ccccc3)CC2)CC1` [Cpd. 314, 4-(6-chloro-4-(4-cyano-4-phenylpiperidin-1-yl)quinoline-3-carbonyl)-N,N-dimethylpiperazine-1-sulfonamide], for which the half-maximal inhibitory concentration (IC50) in experiment [1] and in experiment [2] was less than 0.5 µM in each case.
In the case of `N#CC1(c2ccccc2)CCN(c2c(C(=O)N3CCC(O)(CO)CC3)cnc3ccc(F)cc23)CC1` [Cpd. 351, 1-(6-fluoro-3-(4-hydroxy-4-(hydroxymethyl)piperidine-1-carbonyl)quinolin-4-yl)-4-phenylpiperidine-4-carbonitrile], the IC50 in experiment [1] and in experiment [2] was less than 0.5 µM throughout.
With `COc1ccc2c(N3CCC(C)(C#N)CC3)c(C(=O)N3CCN(C(=O)C(C)C)CC3)cnc2c1` [Example 103, 1-(3-(4-isobutyrylpiperazine-1-carbonyl)-7-methoxyquinolin-4-yl)-4-methylpiperidine-4-carbonitrile], the IC50 in experiment [1] is less than 0.5 µM; in experiment [2] it was 1 to 10 µM.
As for `CCS(=O)(=O)N1CCN(C(=O)c2cnc3c(F)cc(F)cc3c2N2CCC(C)(C#N)CC2)CC1` [Example 166, 1-(3-(4-(ethylsulfonyl)piperazine-1-carbonyl)-6,8-difluoroquinolin-4-yl)-4-methylpiperidine-4-carbonitrile], the IC50 is less than 0.5 µM in experiment [1] and 1 to 10 µM in experiment [2].
On to `CS(=O)(=O)N1CCN(C(=O)c2cnc3ccc(F)cc3c2N2CCC(Cc3ccccc3)CC2)CC1` [Example 198, (4-(4-benzylpiperidin-1-yl)-6-fluoroquinolin-3-yl)(4-(methylsulfonyl)piperazin-1-yl)methanone], for which the IC50 in experiment [1] was less than 0.5 µM; in experiment [2], more than 10 µM.
Turning to `C=CC(=O)N1CCN(c2c(C(=O)N3CCN(S(C)(=O)=O)CC3)cnc3ccc(F)cc23)CC1` [Example 220, 1-(4-(6-fluoro-3-(4-(methylsulfonyl)piperazine-1-carbonyl)quinolin-4-yl)piperazin-1-yl)prop-2-en-1-one], the IC50 was 1 to 10 µM in experiment [1] and more than 10 µM in experiment [2].
For `COc1ccc2ncc(C(=O)N3CCN(C(=O)C4CC4)CC3)c(N3CCC4(CC3)CC4)c2c1` [Example 46, (4-(cyclopropanecarbonyl)piperazin-1-yl)(6-methoxy-4-(6-azaspiro[2.5]octan-6-yl)quinolin-3-yl)methanone] the same measures were less than 0.5 µM and 1 to 10 µM.
In the case of `CC1(O)CCN(C(=O)c2cnc3ccc(F)cc3c2-c2ccc(C3(C#N)CC3)cc2)CC1` [Cpd. 350, 1-(4-(6-fluoro-3-(4-hydroxy-4-methylpiperidine-1-carbonyl)quinolin-4-yl)phenyl)cyclopropane-1-carbonitrile], the IC50 in experiment [1] was less than 0.5 µM; in experiment [2], 1 to 10 µM.
For `N#CC1(c2ccc(-c3c(C(=O)Nc4cnn(CC(N)=O)c4)cnc4ccc(F)cc34)cc2)CC1` [Cpd. 342, N-(1-(2-amino-2-oxoethyl)-1H-pyrazol-4-yl)-4-(4-(1-cyanocyclopropyl)phenyl)-6-fluoroquinoline-3-carboxamide] the same measures were less than 0.5 µM and 0.5 to 1 µM.
